Measured values reported in patent publication US7022680B2, “Inhibitors of ADP-ribosyl transferases, cyclases, and hydrolases” (Albert Einstein College of Medicine of Yeshiva University, priority 2002, dated 2006).
Values joined by “and” are separate entries in the source; they are usually repeats but may differ in a detail not shown here. Equal entries are not always repeated.

Legend:
[1] = Solution hydrolysis of the inhibitor; format: physicochemical; conditions: 10 mM potassium phosphate, pH 6.5, 25° C.
Excerpt: Without being bound to any particular mechanism, it is believed that the electron-contributing moiety on A stabilizes the compounds of the invention such that they are less susceptible to hydrolysis from the rest of the compound. For example, the compound β-1′-5-methyl-nicotinamide-2′-deoxyribose (established as an effective inhibitor of CD38 in the Example) was compared with β-1′-nicotinamide-2′-deoxyribose in its ability to resist solution hydrolysis. […] This difference in chemical stability means that β-1′-nicotinamide-2′-deoxyribose is 50% depleted from solution in 2 hours, whereas β-1′-5-methyl-nicotinamide-2′-deoxyribose is not hydrolyzed by 50% until 12 hours. This improved chemical stability improves the value of the compound, since it is available for action for longer periods of time in biological systems due to resistance to hydrolytic breakdown.

[2] = molecular target: T1, human CD38 (Homo sapiens, UniProt P28907); test: CD38-catalyzed base exchange of 2 to 1 with nicotinamide, HPLC; format: biochemical; parameters: The soluble domain of human CD38 catalyzes the conversion of NAD^+ to cyclic-ADP-ribose; conditions: 75 μM 2, 1 μM CD38, nicotinamide, 19° C.
T1 sequence (P28907 43-300 limits assumed): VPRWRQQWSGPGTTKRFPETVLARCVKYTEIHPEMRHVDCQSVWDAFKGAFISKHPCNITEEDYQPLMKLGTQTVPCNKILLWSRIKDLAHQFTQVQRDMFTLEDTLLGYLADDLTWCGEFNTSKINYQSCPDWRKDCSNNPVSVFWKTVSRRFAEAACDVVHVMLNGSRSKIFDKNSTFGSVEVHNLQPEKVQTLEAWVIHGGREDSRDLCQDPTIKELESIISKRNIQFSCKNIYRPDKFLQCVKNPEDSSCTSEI
Description: Base-exchange reaction. […] These reactions were run separately in autosampler tubes held at 19° C. in a temperature regulated autosampler and assayed by multiinjection HPLC using 5 mM K2PO4H pH 5.0 and 2.5% MeOH as eluant. The quantity of 2 reacted and the quantity of 1 formed versus time was determined by integrations of the peaks for 1 and 2 with comparison to standards.

[3] = molecular target: T1, human CD38; test: Off-rate / recovery of inhibited CD38 in excess NGD+; format: biochemical; parameters: The soluble domain of human CD38 catalyzes the conversion of NAD^+ to cyclic-ADP-ribose; conditions: inhibited CD38 added to excess NGD+, 19° C.; for koff: read-out: koff, rate constant of recovery from inhibition
Description: Off-Rate Measurement. 500 nM CD38 in 50 mM potassium phosphate pH 7.2 was incubated with 15 μM inhibitor for 30 min at room temperature. 5 μL of the enzyme inhibitor solution was added to a cuvette containing 1 mL reaction of 50 mM potassium phosphate pH 7.5 containing 300 μM NGD^+ pre-chilled to 19° C. Production of […] was determined by monitoring 295 nm absorbance. The absorbance was fit to the equation A(t)=vt+(b−v)(1−exp(−kt))/k+A0 where A(t) is the absorbance, k is the rate constant of recovery, b is the initial rate, v is the final rate and A0 is the initial absorbance. A control lacking inhibitor but in all other respects identical was also run.
Recovery from Inhibition. […] The inhibitor off-rate provides the final parameter in the equation koff/kon*Ki=Ki(total) which is valid for the kinetic scheme of slow-onset inhibition shown in Scheme 5. This rate was obtained by a recovery protocol in which inhibited CD38 enzyme (by either 1 or 2) was added to a 200 μM solution of NGD^+. The solution 295 nm absorbance is monitored spectrophotometrically to assay conversion of NGD^+ to cGDPR as a consequence of regain of CD38 catlytic activity. […] The absorbance curves with the same equation used for slow-onset: At=vit+(vi−vf)(1−exp(−kt))/k+A0 where At is absorbance, vi is initial velocity, vf is final velocity, t is time in s, k is the rate of the recovery rate constant and A0 is the absorbance of the sample at initial time. The rate constant for the recovery phase was obtained from the average value of k determined from the separate fits. The value of koff for 1 was determined to be 1.5×10^−5 s^−1 and for 2 was determined to be 2.5×10^−5 S^−1.

[4] = molecular target: T1, human CD38; test: Radiochemical labeling of CD38 by [2'-3H] inhibitor (gel filtration, scintillation counting); format: binding; parameters: The soluble domain of human CD38 catalyzes the conversion of NAD^+ to cyclic-ADP-ribose; conditions: 9 μM inhibitor, 1.2 μM CD38 monomer, pH 7.5, 25° C.
Description: Radiochemical measurement of inhibitor binding. […] Inhibitor at 9 μM with specific radioactivity of 866 cpm/nmol, was incubated with 1.2 μM CD38 (monomer) in 1 mL 50 mM potassium phosphate (pH 7.5). The reactions were started by enzyme addition and quenched by freezing with a dry ice/acetone bath at 30, 60 90, 120, 250, 500, and 1000 s. Cooled (0° C.) gel filtration columns were used to separate protein with cooled (0° C.) 10 mM potassium phosphate as eluant. The frozen fraction were quickly thawed, applied to these columns and fractions collected in 1 mL volumes over the course of several minutes. Scintillation fluid (9 mL) was then added to each 1 mL fraction and samples counted. […] The observed radioactivity was fit using the equation A(t)=A0(1−exp(−kt))+B. where A0 is activity at reaction completion, k is the observed pseudo-first order rate constant and B is the activity of the blank.
Titration of Enzyme with [2′-^3H]Inhibitor. CD38 inactivation was accomplished using a radiolabeled inhibitor to assess inhibitor interactions with the enzyme independent from inhibition of the catalytic activity. This method allows the determination of the stoichiometry of covalent labeling, and detects cooperativity at multiple sites. […] (FIG. 8) within reasonable agreement with the rate constant for inactivation in kinetic assays of inhibition (kon=0.0042 s^−1 at 19° C.). […]

[5] = molecular target: T1, human CD38; conditions: CD38 preincubated with inhibitor 2; saturating nicotinamide
Description: 10 mL CD38 (1 μM) in K2PO4H was incubated with 2 (10 μM) for 30 minutes at room temperature and subsequently placed on ice. […] To a two syringe Applied Photophysics spectrophotometer in fluorescence mode was added inhibited enzyme to one syringe and NGD^+ solution to the other. Fluorescence was used to monitor cGDPR formation and the total fluorescence curves fit using the activity recovery equation F(t)=vt+(b−v) (1−exp(−kt))/k+F0 where k is the observed rate constant, b is the initial rate, v is the final rate and F0 is the initial absorbance.
A stopped flow, two syringe fitted spectrophotometer was used to perform the experiments. The fluorescence of cGDPR was measured as a function of time to generate curves that contain an exponential and a linear phase prior to substrate exhaustion. These curves were fit to the equation Ft=vft+(vi−vf)(1−exp (−kt))/k+F0 as previously defined.

[6] = molecular target: T1, human CD38; test: Competitive and slow-onset inhibition of CD38-catalyzed conversion of NGD+ to cGDPR (295 nm absorbance); format: biochemical; parameters: The soluble domain of human CD38 catalyzes the conversion of NAD^+ to cyclic-ADP-ribose; conditions: even at millimolar concentrations (data not shown)
Description: Determination of Ki and kon by competitive method. To 1 mL solutions of 50 mM potassium phosphate pH 7.2 and 100 μM NGD^+ containing, 50, 25, 12.5, and 6.25 and 0 μM inhibitor 1 was added 2 μL of 7 μM CD38. Reaction progress upon initiation by enzyme addition was monitored by measurement of 295 nm absorbance. The initial slopes were used to determine the Ki value, and all points of the experiment were fit to the equation A(t)=vt+(b−v)(1−exp(−kt))/k+A0 where k is the observed rate constant, b is the initial rate, v is the final rate and A0 is the initial absorbance was used to evaluate kon.
Determination of Competitive Inhibition by Initial Rates: The inhibitors 1–3 were evaluated for inhibition of CD38 enzymatic activity using a spectrophotometric assay. CD38 catalyzes the conversion of NGD^+ to cyclic-GDP ribose (cGDPR, Scheme 4) and product formation can be monitored by 295 nm absorbance measurement. […] A similar reaction containing 40 μM NGD^+ at several concentrations of 2 was also performed (FIG. 3).
Slow Phase Inhibition. […] This slow phase was not due to substrate depletion and was attributable to a kinetic process leading to progressive inhibition of the enzyme. The “slow-onset” absorbance curves could be fit using the equation At=vit+(vi−vf)(1−exp(−kt))/k+A0 where At is absorbance, vi is initial velocity, vf is final velocity, t is time in s, k is the rate of the slow onset process and A0 is absorbance of the sample at initial time. These fits are shown by the solid lines in FIG. 2 and FIG. 3. The rate constant for the slow phase could be obtained from the average value of k determined from the separate fits. The value of k for 1 was determined to be 0.0042±0.001 s^−1 and the value of k for 2 was determined to be 0.0083±0.002 s^−1. The parameter k is defined as kon in Scheme 5. [drawing 19]

[7] = molecular target: T2, CD38 (Homo sapiens, UniProt P28907); conditions: 37° C.; cited from earlier work
T2 sequence (P28907 1-300): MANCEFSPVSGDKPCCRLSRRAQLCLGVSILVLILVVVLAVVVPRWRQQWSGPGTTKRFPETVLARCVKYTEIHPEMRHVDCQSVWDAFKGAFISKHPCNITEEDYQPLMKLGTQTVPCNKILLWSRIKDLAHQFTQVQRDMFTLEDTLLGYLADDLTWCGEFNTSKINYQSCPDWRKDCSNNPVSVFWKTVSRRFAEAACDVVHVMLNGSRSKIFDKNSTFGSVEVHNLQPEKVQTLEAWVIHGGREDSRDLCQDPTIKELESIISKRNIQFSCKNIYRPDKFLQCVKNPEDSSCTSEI

Cc1cc(C(N)=O)c[n+]([C@H]2C[C@H](O)[C@@H](CO)O2)c1 [inhibitor 2, 5-methyl-nicotinamide-2′-deoxyriboside]
time until 50% depleted from solution by hydrolysis [1]: 12 h | kcat of base exchange (2 to 1) [2]: 0.007 s⁻¹ | koff, rate constant of recovery from inhibition [3]: 2.5e-05 s⁻¹ | koff [3]: ~2e-05 s⁻¹

[3H]C1[C@H]([n+]2cccc(C(N)=O)c2)O[C@H](CO)[C@H]1O (stereo partly shown) [[2′-^3H]-1, [2′-^3H]Nicotinamide deoxyriboside]
rate constant of radiochemical labeling of CD38 (kchem) [4]: 0.01 s⁻¹

NC(=O)c1ccc[n+]([C@H]2C[C@H](O)[C@@H](CO)O2)c1 [inhibitor 1, nicotinamide-2′-deoxyriboside]
time until 50% depleted from solution by hydrolysis [1]: 2 h | koff, rate constant of recovery from inhibition [3]: 1.5e-05 s⁻¹ | koff [3]: ~2e-05 s⁻¹

NC(=O)c1cccnc1 [nicotinamide]
maximum rate of rescue (kbase) [5]: 0.023 s⁻¹ and 0.024 s⁻¹

NC(=O)c1ccc[n+](C2CC(O)C(CO)O2)c1 (single isomer, unassigned) [α isomer of 1]
inhibition of CD38 conversion of NGD+ to cGDPR [6]: did not inhibit

NC(=O)c1ccc[n+]([C@@H]2O[C@H](COP(=O)(O)O)[C@@H](O)[C@H]2O)c1 [NMN^+]
ratio of the rates of turnover of CD38 covalent intermediates, NMN+ versus ara-F-NMN+ [7]: ~10^7

OC[C@H]1O[C@@H]([n+]2ccccc2)C[C@@H]1O [inhibitor 3, pyridyl-2′-deoxyriboside]
inhibition of CD38 conversion of NGD+ to cGDPR [6]: did not inhibit

Cc1cc(C(N)=O)c[n+](C2CC(O)C(CO)O2)c1 (single isomer, unassigned) [α isomer of 2]
inhibition of CD38 conversion of NGD+ to cGDPR [6]: did not inhibit
